The results in this text go back to publication PMC11488100, “PET imaging of CXCR4 expression using [^18F]AlF-NOTA-QHY-04 for hematologic malignancy and solid tumors” (Theranostics, 2024).

Series [1] can be described thus: [18F]FDG PET/CT imaging in cancer patients. Type of series: in vivo, human. From the text: Potential eligible patients with newly diagnosed tumor were recruited from Shandong Cancer Hospital and institute from November 2022 to December 2023. A total of 55 patients including 8 tumor types were represented in this study (diffuse large B-cell lymphoma (DLBCL), n = 6; SCLC, n = 30; non-small cell lung cancer (NSCLC), n = 4; triple-negative breast cancer (TNBC), n = 3; pancreatic carcinoma, n = 3; glioma, n = 7; hepatocellular carcinoma (HCC), n = 1; and colorectal carcinoma (CRC), n = 1). The [^18F]AlF-NOTA-QHY-04 imaging study in patients was approved by the Institutional Review Board of Shandong Cancer Hospital and Institute (no. SDZLEC2023-256-02), and the patients provided their informed consent before inclusion in this study. In this prospective observational study, [^18F]AlF-NOTA-QHY-04 PET/CT scans should not affect the normal process of routine examinations and treatment as usual. Patients were enrolled according to the following criteria: (1) newly diagnosed cancer patients with visible tumors on conventional imaging; (2) histopathologically confirmed diagnosis; (3) age ≥ 18 years; (4) Eastern Cooperative Oncology Group (ECOG) performance status score of 0-2; (5) no prior cancer-directed therapy; (6) ability to undergo [^18F]AlF-NOTA-QHY-04 PET/CT scanning before treatment initiation. Specifically, regarding histological confirmation, we followed the standard clinical practice guidelines for each type of cancer [21]-[26], and provided detailed descriptions of our approach for obtaining histological evidence in the supplemental materials. All patients included in this study were treatment-naïve at the time of [^18F]AlF-NOTA-QHY-04 PET/CT imaging, to ensure that CXCR4 expression levels were not altered by treatments. PET/CT scans were performed within one week of pathological confirmation and carefully coordinated with the patient's clinical teams to avoid any delays in the initiation of treatment. Seven patients from them also underwent [^18F]FDG PET/CT scan. These patients fasted for at least 6 hours before [^18F]FDG PET/CT imaging. The methods for PET/CT scanning and image analysis were the same as previously reported, and detailed in the supplemental materials.
pathologists following standard diagnostic criteria, including routine H&E staining and
relevant immunohistochemical analyses. Histological confirmation was completed before
patients underwent [18F]AlF-NOTA-QHY-04 PET/CT imaging to ensure an accurate
correlation between imaging findings and tumor characteristics.
All the PET/CT scans in patients were acquired through an integrated in -line PET/CT
system (GEMINI TF Big Bore, Philips Healthcare, USA) at 60 min after intravenous
administration of 4.81 MBq/kg [18F]AlF-NOTA-QHY-04 or [18F]FDG. The
medical information system (Beijing Mozi Healthcare Technology Co., Ltd., Beijing,
China). ROIs were drawn on the transaxial images , and the maximum, mean, and peak
standard uptake value (SUV max, SUVmean, SUVpeak) were calculated automatically and used
for measuring the uptake of [18F]AlF-NOTA-QHY-04 by malignant tissues. In PET imaging
of brain tumors, T/N (tumor-to-normal brain ratio) was calculated according to the ratio of
SUVmax of tumor to SUVmean of the contralateral normal brain tissue. Two experienced
nuclear medicine physicians unaware of the patients’ clinical history analyzed the PET/CT
data first independently and then in consensus . […]
For mIF staining, the FFPE sections were baked for 2 h at 60 °C and then
deparaffinized with xylene and rehydrated through decreasing gradient ethanol. Antigen
retrieval was performed in AR6 buffer (Akoya Biosciences) in a microwave oven for 15

The target in series [2] is T1, recombinant CXCR4 protein (Homo sapiens, UniProt P61073).
T1 construct: purchased Novoprotein C16M
Put plainly: Biolayer interferometry (BLI) binding assay. Particulars: BLI Octet Red96, biotinylated CXCR4 on SSA biosensors, 30 °C, HBS-P buffer pH 7.4, 0.0313-1 μM, 1:1 binding model, global fit. The protocol: The in vitro and in vivo stability of [^18F]AlF-NOTA-QHY-04 were evaluated by radio-HPLC to examine the RCP after different incubation periods. The binding affinity of the unlabeled precursor to CXCR4 was measured using the biolayer interferometry Octet Red96 system (PALL ForteBio, USA). The details are supplied in the supplemental materials. […]
human serum albumin solution were evaluated by radio-HPLC to examine the radiochemical purity after different incubation periods. For the saline study, 200 μL of [18F]AlF-NOTA-QHY-04 (0.74–3.70 MBq) was incubated at 37°C with 800 μL of saline for 1 h, 3 h and 6 h respectively, and then directly evaluated by radio -HPLC. […] Finally, the supernatant was collected and passed through a 0.22 μm membrane filter (Millipore, USA) and analyzed by radio-HPLC. […]
The processed blood supernatants and diluted urine samples were collected and passed through a 0.22 μm membrane filter (Millipore, USA) and analyzed by radio-HPLC. […]
and 1 μM NOTA-QHY-04 sample) was prepared and flowed. […] Prior to fitting, the data were baseline-subtracted and analyzed using a 1:1 binding model and the ForteBio data analysis software. Mean Kd value was determined by applying a global fit to all the data. […]
On the technique in general: In BLI a coated tip is dipped into the sample, and binding shifts an interference pattern.

[3] abbreviates: 10 lesions of DLBCL patient No. 32.

Bridge positions count the residues as written; N and C are the ends. Square brackets hold non-standard residues; d marks the D form. Peptide text beside a SMILES is read from it. * marks the point of attachment. NOTA = O=C(O)CN1CCN(CC(=O)O)CCN(CC(=O)*)CC1; 2Nal = N[C@@H](Cc1ccc2ccccc2c1)C(=O)O; Pen = CC(C)(S)[C@H](N)C(=O)O; 4Amb = NCc1ccc(C(=O)O)cc1; Ahx = NCCCCCC(=O)O

T1 sequence (P61073 1-39 limits assumed): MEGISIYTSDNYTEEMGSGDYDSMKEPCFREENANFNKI

Take `OC[C@H]1OC(O)[C@H]([18F])[C@@H](O)[C@@H]1O` (stereo partly shown) [[^18F]FDG]: the SUVmax in series [1] (setting [3]) was determined as 8.00 ± 4.57; in series [1] (bone metastasis of NSCLC patient No. 35) it was 4.1; in series [1] (inguinal lymph node of DLBCL patient No. 32), 2.17; in series [1] (lymph node metastasis of NSCLC patient No. 35) it was 4.26; in series [1] (primary lesion of NSCLC patient No. 35) it was 5.23. In series [1] (setting [3]), this compound showed an SUVmean of 4.39 ± 2.36. For the same compound, the “average T/N (tumor-to-normal brain ratio)” value in series [1] (SUVmax of tumor / SUVmean of contralateral normal brain, three PCNS DLBCL and one low-grade glioma patient) came to 1.70 ± 0.25. Moreover, the “average SUVmax” value in series [1] (three PCNS DLBCL patients and one low-grade glioma patient imaged with both tracers) amounted to 12.12 ± 2.03.

Usually Kd stands for the equilibrium constant for the complex coming apart. For `C[C@H](NC(=O)[C@H](CCCNC(=N)N)NC(=O)CCCCCNC(=O)c1ccc(CNC(=O)CN2CCN(CC(=O)O)CCN(CC(=O)O)CC2)cc1)C(=O)N[C@@H]1CSSC(C)(C)[C@@H](C(=O)O)NC(=O)[C@H](Cc2c[nH]cn2)NC(=O)[C@H](Cc2ccc3ccccc3c2)NC(=O)[C@H](CCCNC(=N)N)NC1=O` [[^natF]AlF-NOTA-QHY-04] ({NOTA-4Amb-Ahx}-RA[dC]R[2Nal]H[Pen]-OH; disulfide 3-7), in series [2], the Kd was 41.3 ± 5.5 nM.

Take `C[C@H](NC(=O)[C@H](CCCNC(=N)N)NC(=O)CCCCCNC(=O)c1ccc(CNC(=O)CN2CCN(CC(=O)O)CCN(CC(=O)O)CC2)cc1)C(=O)N[C@@H]1CSSC(C)(C)[C@@H](C(=O)O)NC(=O)[C@H](Cc2c[nH]cn2)NC(=O)[C@H](Cc2ccc3ccccc3c2)NC(=O)[C@H](CCCNC(=N)N)NC1=O` [NOTA-QHY-04] ({NOTA-4Amb-Ahx}-RA[dC]R[2Nal]H[Pen]-OH; disulfide 3-7): in series [2], the Kd amounted to 55.2 ± 11.3 nM.
